Reference: patent US20230348415A1, “BISPECIFIC ANTAGONISTS OF RETINOL-BINDING PROTEIN 4 THAT STABILIZE TRANSTHYRETIN TETRAMERS, THEIR PREPARATION, AND USE IN THE TREATMENT OF COMMON AGE-RELATED COMORBIDITIES” (The Trustees of Columbia University in the City of New York, priority 2020, published 2023)
Read-outs that look alike come from different tables or passages of the source.

Columns and labels:
RBP4 = RBP4 (Homo sapiens (Human), UniProt P02753); test: RBP4 SPA binding assay (displacement of 3H-retinol)
TTR = TTR (Homo sapiens (Human), UniProt P02766); test: biochemical; type: binding; details: FITC-coupled TTR FP probe; read-out: TTR FP IC50
Protocol: Compound binding to TTR was assessed in the fluorescence polarization assay. […] Each well contained 200 nM TTR and 100 nM FITC-diclofenac in the FP buffer (10 mM Tris-HCl pH 7.5, 150 mM NaCl, 0.01% CHAPS, 0.01% Prionex) along with test compounds. Nonspecific binding was determined in the presence of 500 μM unlabeled diclofenac (Sigma-Aldrich). Reactions with test compounds were incubated overnight at 4° C. and FP was measured on SpectramaxM5e plate reader (Molecular Devices).

RBP4-TTR interaction = RBP4-TTR interaction (Homo sapiens (Human), UniProt P02753); test: HTRF RBP4-TTR interaction assay; type: biochemical
Protocol: HTRF Cryptate labeling kit from CisBio (Cisbio, cat #62EUSPEA, Bedfored, MA) was used to label TTR with Eu^3+ Cryptate. The assay was performed in a final assay volume of 16 μl in the buffer that contained 10 mM Tris-HCl pH 7.5, 1 mM DTT, 0.05% NP-40, 0.05% Prionex, 6% glycerol, and 400 mM KF. […] All of the reactions were performed under dim red light in the dark. The plates were read in the SpectraMax M5e Multimode Plate Reader (Molecular Devices, Sunnyvale, CA) after the overnight incubation at 4° C. […] The HTRF signal was expressed as the ratio of fluorescence intensity: Flu668/Flu620×10,000.

[1] = 1 μM retinol, read-out: RBP4-TTR HTRF IC50
[2] = fixed 10 nM 3H-retinol, read-out: RBP4 SPA IC50

SMILES	IC50 (RBP4) [µM]	IC50 (TTR) [µM]	IC50 (RBP4-TTR interaction; [1]) [µM]	IC50 (RBP4; [2]) [µM]	IC50 (RBP4-TTR interaction) [µM]
Cc1cc(C(=O)O)nc(N2CCCC(COc3ccccc3C(F)(F)F)C2)n1 (racemic) [(±)-62, (±)-6-Methyl-2-(3-((2-(trifluoromethyl)phenoxy)methyl)piperidin-1-yl)pyrimidine-4-carboxylic Acid]	0.48	1.1			15
Cc1cc(C(=O)O)nc(N2CCC(OCc3ccccc3C(F)(F)F)C2)n1 (racemic) [(±)-80, (±)-6-Methyl-2-(3-((2-(trifluoromethyl)benzyl)oxy)pyrrolidin-1-yl)pyrimidine-4-carboxylic Acid]	> 3	13			
Cc1cc(-c2nn[nH]n2)nc(N2CCC(COc3ccccc3C(F)(F)F)C2)n1 (racemic) [(±)-103, (±)-4-Methyl-6-(2H-tetrazol-5-yl)-2-(3-((2-(trifluoromethyl)phenoxy)methyl)pyrrolidin-1-yl)pyrimidine]	0.086	1.26			1.6
Cc1cc(C(=O)O)nc(N2CCC(CSc3ccccc3C(F)(F)F)C2)n1 (racemic) [Compound (±)-71, (±)-6-Methyl-2-(3-(((2-(trifluoromethyl)phenyl)thio)methyl)pyrrolidin-1-yl)pyrimidine-4-carboxylic Acid]		10.5	1.3	0.23	
Cc1cc(C(=O)O)nc(N2CCC(COc3cccc(Cl)c3C(F)(F)F)C2)n1 (racemic) [Compound (±)-86, (k)-2-(3-((3-Chloro-2-(trifluoromethyl)phenoxy)methyl)pyrrolidin-1-yl)-6-methylpyrimidine-4-carboxylic Acid]		3.9		0.18	
Cc1cc(C(=O)O)nc(N2CCC(COc3ccc(F)cc3C(F)(F)F)C2)n1 (racemic) [Compound (±)-87, (W)-2-(3-((4-Fluoro-2-(trifluoromethyl)phenoxy)methyl)pyrrolidin-1-yl)-6-methylpyrimidine-4-carboxylic Acid]		3.9	0.87	0.24	
Cc1cc(C(=O)O)nc(N2CCC(COc3cc(F)ccc3C(F)(F)F)C2)n1 (racemic) [Compound (±)-88, (±)-2-(3-((5-Fluoro-2-(trifluoromethyl)phenoxy)methyl)pyrrolidin-1-yl)-6-methylpyrimidine-4-carboxylic Acid]		13	0.3	0.13	
Cc1cc(C(=O)O)nc(N2CCC(COc3c(F)cccc3C(F)(F)F)C2)n1 (racemic) [Compound (±)-89, (±)-2-(3-((2-Fluoro-6-(trifluoromethyl)phenoxy)methyl)pyrrolidin-1-yl)-6-methylpyrimidine-4-carboxylic Acid]		1.9	1	0.3	
COc1ccc(C(F)(F)F)c(OCC2CCN(c3nc(C)cc(C(=O)O)n3)C2)c1 (racemic) [Compound (±)-90, (k)-2-(3-((5-Methoxy-2-(trifluoromethyl)phenoxy)methyl)pyrrolidin-1-yl)-6-methylpyrimidine-4-carboxylic Acid]		> 30		> 3	
Cc1cc(C(=O)O)nc(N2CCC(COc3cc(C(F)(F)F)cc(C(F)(F)F)c3)C2)n1 (racemic) [Compound (±)-91, (k)-2-(3-((3,5-Bis(trifluoromethyl)phenoxy)methyl)pyrrolidin-1-yl)-6-methylpyrimidine-4-carboxylic Acid]		> 30		1.6	
Cc1cc(C(=O)O)nc(N2CC(Oc3ccccc3C(F)(F)F)C2)n1 [Compound 32, 6-Methyl-2-(3-(2-(trifluoromethyl)phenoxy)azetidin-1-yl)pyrimidine-4-carboxylic Acid]		13.5			

The next lines start with results.

IC50 (RBP4) [µM]	IC50 (TTR) [µM]	IC50 (RBP4-TTR interaction; [1]) [µM]	IC50 (RBP4; [2]) [µM]	SMILES	IC50 (RBP4-TTR interaction) [µM]
> 3	8.8			Cc1cc(C(=O)O)nc(N2CCC(Oc3ccccc3C(F)(F)F)C2)n1 (racemic) [(±)-27, (±)-6-Methyl-2-(3-(2-(trifluoromethyl)phenoxy)pyrrolidin-1-yl)pyrimidine-4-carboxylic Acid]	
0.26	1.6			Cc1cc(C(=O)O)nc(N2CCC3(CCN(c4ccccc4C(F)(F)F)C3)C2)n1 (racemic) [(±)-67, (±)-6-Methyl-2-(7-(2-(trifluoromethyl)phenyl)-2,7-diazaspiro[4.4]nonan-2-yl)pyrimidine-4-carboxylic Acid]	
	3.5	7.5	0.9	Cc1cc(C(=O)O)nc(N2CCC(CNc3ccccc3C(F)(F)F)C2)n1 (racemic) [(±)-76, (±)-6-Methyl-2-(3-(((2-(trifluoromethyl)phenyl)amino)methyl)pyrrolidin-1-yl)pyrimidine-4-carboxylic Acid]	
	7.4	0.54	0.13	Cc1cc(C(=O)O)nc(N2CCC(COc3ccccc3C(F)(F)F)C2)c1 (racemic) [(±)-95, (±)-4-Methyl-6-(3-((2-(trifluoromethyl)phenoxy)methyl)pyrrolidin-1-yl)picolinic Acid]	
2.35	1.88			O=C(O)c1ccc(F)c(N2CCC(COc3ccccc3C(F)(F)F)C2)c1 (racemic) [(±)-98, (±)-4-Fluoro-3-(3-((2-(trifluoromethyl)phenoxy)methyl)pyrrolidin-1-yl)benzoic Acid]	
	4.2	0.7	0.081	Cc1cc(C(=O)NS(C)(=O)=O)nc(N2CCC(COc3ccccc3C(F)(F)F)C2)n1 (racemic) [(±)-99, (±)-6-Methyl-N-(methylsulfonyl)-2-(3-((2-(trifluoromethyl)phenoxy)methyl)pyrrolidin-1-yl)pyrimidine-4-carboxamide]	
	> 30	> 30	0.089	CNC(=O)c1cc(C)nc(N2CCC(COc3ccccc3C(F)(F)F)C2)n1 (racemic) [(±)-101, (±)-N,6-dimethyl-2-(3-((2-(trifluoromethyl)phenoxy)methyl)pyrrolidin-1-yl)pyrimidine-4-carboxamide]	
	> 30	0.45	0.13	Cc1cc(C(=O)O)nc(N2CCC(COc3ccccc3C(C)(C)C)C2)n1 (racemic) [Compound (±)-83, (±)-2-(3-((2-(Tert-butyl)phenoxy)methyl)pyrrolidin-1-yl)-6-methylpyrimidine-4-carboxylic Acid]	
	> 30	0.54	0.16	Cc1cc(C(=O)O)nc(N2CCC(COc3ccccc3C3CCCC3)C2)n1 (racemic) [Compound (±)-84, (±)-2-(3-((2-Cyclopentylphenoxy)methyl)pyrrolidin-1-yl)-6-methylpyrimidine-4-carboxylic Acid]	
0.21	> 30			Cc1cc(C(=O)O)nc(N2CCC(COc3ccccc3C3CCCCC3)C2)n1 (racemic) [Compound (±)-85, (±)-2-(3-((2-Cyclohexylphenoxy)methyl)pyrrolidin-1-yl)-6-methylpyrimidine-4-carboxylic Acid]	
	> 30	3.7	0.52	Cc1cc(C(=O)O)nc(N2CCC(COc3cnccc3C(F)(F)F)C2)n1 (racemic) [Compound (±)-92, (±)-6-Methyl-2-(3-(((4-(trifluoromethyl)pyridin-3-yl)oxy)methyl)pyrrolidin-1-yl)pyrimidine-4-carboxylic Acid]	
0.66	> 30			Cc1cc(C(=O)O)nc(N2CCC(COc3cccnc3C(F)(F)F)C2)n1 (racemic) [Compound (±)-93, (±)-6-Methyl-2-(3-(((2-(trifluoromethyl)pyridin-3-yl)oxy)methyl)pyrrolidin-1-yl)pyrimidine-4-carboxylic Acid]	
1.67	11			O=C(O)c1ccnc(N2CCC(COc3ccccc3C(F)(F)F)C2)n1 (racemic) [Compound (±)-94, (±)-2-(3-((2-(Trifluoromethyl)phenoxy)methyl)pyrrolidin-1-yl)pyrimidine-4-carboxylic Acid]	
> 3	25			O=C(O)c1cccc(N2CCC(COc3ccccc3C(F)(F)F)C2)n1 (racemic) [Compound (±)-96, (±)-6-(3-((2-(Trifluoromethyl)phenoxy)methyl)pyrrolidin-1-yl)picolinic acid]	
	4.9	1.3	0.68	O=C(O)c1cccnc1N1CCC(COc2ccccc2C(F)(F)F)C1 (racemic) [Compound (±)-97, (±)-2-(3-((2-(Trifluoromethyl)phenoxy)methyl)pyrrolidin-1-yl)nicotinic Acid]	
	> 30	2.3	0.062	Cc1cc(C(N)=O)nc(N2CCC(COc3ccccc3C(F)(F)F)C2)n1 (racemic) [Compound (±)-100, (±)-6-Methyl-2-(3-((2-(trifluoromethyl)phenoxy)methyl)pyrrolidin-1-yl)pyrimidine-4-carboxamide]	
	4.1	19	0.062	Cc1cc(C(=O)NC2CC2)nc(N2CCC(COc3ccccc3C(F)(F)F)C2)n1 (racemic) [Compound (±)-102, (±)-N-Cyclopropyl-6-methyl-2-(3-((2-(trifluoromethyl)phenoxy)methyl)pyrrolidin-1-yl)pyrimidine-4-carboxamide]	
